# Measurements: publication PMC9986306, “Beyond CBD: Inhibitory effects of lesser studied phytocannabinoids on human voltage-gated sodium channels” (Frontiers in Physiology, 2023)
# Marks after values point to notes of the source that are not given here.
# Experiments:
# [1] = target: T1, human NaV1.1 channel (SCN1A, HEK293T cells) (Homo sapiens, UniProt P35498); experiment: Planar patch-clamp, biophysical properties (activation, SSFI, recovery from SSFI); assay type: cell-based; conditions: change vs vehicle DMSO at IC50 concentration (CBD 18.5 μM, CBGA 13.6 μM, CBDVA 50 μM)
# T1 construct: expressed in transfected cells
# Description: (§1) HEK293T cells stably expressing SCN1A or SCN2A and CHO cells stably expressing SCN8A or SCN9A were maintained as previously described ([Richards et al., 2018]; [Milligan et al., 2022]).
# (§2) Patch-clamp recordings were made using a Patchliner® (Nanion Technologies, Munich, Germany) in the whole-cell configuration as previously described ([Richards et al., 2018]; [Milligan et al., 2022]). Briefly, cells were prepared in suspension at a density of 1 × 10^6-5 × 10^7 cells/mL. The external recording solution comprised (in mM): 140 NaCl, 4 KCl, 1 MgCl2, 2 CaCl2, 5 D-glucose, 10 HEPES, pH 7.4 with NaOH, ∼295 mOsm. The internal recording solution comprised (in mM): 50 CsCl, 60 CsF, 10 NaCl, 20 EGTA, 10 HEPES, pH 7.2 with CsOH, ∼285 mOsm. Medium single-hole planar NPC-16 chips with an average resistance of ∼2.5 MΩ were used. Chip and whole-cell capacitance were fully compensated, and 50% series resistance compensation applied. Recordings were acquired at 50 kHz with the low pass filter set to 10 kHz in PATCHMASTER (HEKA Instruments, NY, United States) and performed at 27°C. Offline analysis was performed using Microsoft Excel, MatLab R2019a (MathWorks) and GraphPad Prism 8 (Molecular Devices).
# (§3) Voltage protocols were used, as previously described ([Richards et al., 2018]). Briefly, to study the voltage-dependence of activation, cells were held at −120 mV and depolarized to test potentials, in 5 mV increments, between −120 mV and +50 mV for 100 ms. To study steady-state fast inactivation, cells were held at conditioning pre-pulse potentials ranging from −120 mV to +30 mV in 5 mV increments from a holding potential of −120 mV and a test pulse at 5 mV for 20 ms. Recovery from fast inactivation was studied by pre-pulsing the cells to 0 mV from a holding potential of −120 mV for 50 ms, to fully inactivate channels. The voltage was then stepped back to the holding potential for variable interpulse intervals (ipi from 0 to 39 ms in 3 ms increments). To test channel availability, the voltage was stepped to 0 mV for 50 ms.
# (§4) To examine the voltage-dependence of activation, normalized current-voltage (I-V) relationships were converted to conductance (G) using the following equation: G = I/(V−V r ) where Vr is the reversal potential for Na^+. The voltage-dependence of conductance and availability were normalized and fitted to a Boltzmann equation: G = 1/(1 + exp [(V−V 0.5)/a]), where a is the slope of the half-maximum, V is the potential of the given pulse, and V 0.5 is the potential for the half-maximal activation/inactivation. The time course of inactivation was fitted to a single exponential function I/Imax = I0+A*exp (-t-t0/τ)+C, where I0 is the non-inactivating component, Imax is the peak current, t is time, and A is the component for the time constant τ. Time constants were plotted against voltage and the data fitted with a decaying exponential equation Y = span*exp (−K*x)+plateau, where span is the starting point of the curve, K is the decay factor, plateau is the value the curve decays to, and x is time. To measure recovery from inactivation, normalized currents were plotted against ipi and data fitted with equation I/I max = 1-exp/(rc + x), where I max is maximal current; rc recovery rate constant; x is time. Peak current (I) was plotted as fractional recovery against the recovery period by normalizing to the maximum current (Imax) during the conditioning potentials.
# [2] = target: T2, human NaV1.2 channel (SCN2A, HEK293T cells) (Homo sapiens, UniProt Q99250); experiment: as above; assay type: cell-based; conditions: change vs vehicle DMSO at IC50 concentration (CBD 18.4 μM, CBGA 14.7 μM, CBDVA 60 μM)
# T2 construct: expressed in transfected cells
# T2 sequence (Q99250 whole entry): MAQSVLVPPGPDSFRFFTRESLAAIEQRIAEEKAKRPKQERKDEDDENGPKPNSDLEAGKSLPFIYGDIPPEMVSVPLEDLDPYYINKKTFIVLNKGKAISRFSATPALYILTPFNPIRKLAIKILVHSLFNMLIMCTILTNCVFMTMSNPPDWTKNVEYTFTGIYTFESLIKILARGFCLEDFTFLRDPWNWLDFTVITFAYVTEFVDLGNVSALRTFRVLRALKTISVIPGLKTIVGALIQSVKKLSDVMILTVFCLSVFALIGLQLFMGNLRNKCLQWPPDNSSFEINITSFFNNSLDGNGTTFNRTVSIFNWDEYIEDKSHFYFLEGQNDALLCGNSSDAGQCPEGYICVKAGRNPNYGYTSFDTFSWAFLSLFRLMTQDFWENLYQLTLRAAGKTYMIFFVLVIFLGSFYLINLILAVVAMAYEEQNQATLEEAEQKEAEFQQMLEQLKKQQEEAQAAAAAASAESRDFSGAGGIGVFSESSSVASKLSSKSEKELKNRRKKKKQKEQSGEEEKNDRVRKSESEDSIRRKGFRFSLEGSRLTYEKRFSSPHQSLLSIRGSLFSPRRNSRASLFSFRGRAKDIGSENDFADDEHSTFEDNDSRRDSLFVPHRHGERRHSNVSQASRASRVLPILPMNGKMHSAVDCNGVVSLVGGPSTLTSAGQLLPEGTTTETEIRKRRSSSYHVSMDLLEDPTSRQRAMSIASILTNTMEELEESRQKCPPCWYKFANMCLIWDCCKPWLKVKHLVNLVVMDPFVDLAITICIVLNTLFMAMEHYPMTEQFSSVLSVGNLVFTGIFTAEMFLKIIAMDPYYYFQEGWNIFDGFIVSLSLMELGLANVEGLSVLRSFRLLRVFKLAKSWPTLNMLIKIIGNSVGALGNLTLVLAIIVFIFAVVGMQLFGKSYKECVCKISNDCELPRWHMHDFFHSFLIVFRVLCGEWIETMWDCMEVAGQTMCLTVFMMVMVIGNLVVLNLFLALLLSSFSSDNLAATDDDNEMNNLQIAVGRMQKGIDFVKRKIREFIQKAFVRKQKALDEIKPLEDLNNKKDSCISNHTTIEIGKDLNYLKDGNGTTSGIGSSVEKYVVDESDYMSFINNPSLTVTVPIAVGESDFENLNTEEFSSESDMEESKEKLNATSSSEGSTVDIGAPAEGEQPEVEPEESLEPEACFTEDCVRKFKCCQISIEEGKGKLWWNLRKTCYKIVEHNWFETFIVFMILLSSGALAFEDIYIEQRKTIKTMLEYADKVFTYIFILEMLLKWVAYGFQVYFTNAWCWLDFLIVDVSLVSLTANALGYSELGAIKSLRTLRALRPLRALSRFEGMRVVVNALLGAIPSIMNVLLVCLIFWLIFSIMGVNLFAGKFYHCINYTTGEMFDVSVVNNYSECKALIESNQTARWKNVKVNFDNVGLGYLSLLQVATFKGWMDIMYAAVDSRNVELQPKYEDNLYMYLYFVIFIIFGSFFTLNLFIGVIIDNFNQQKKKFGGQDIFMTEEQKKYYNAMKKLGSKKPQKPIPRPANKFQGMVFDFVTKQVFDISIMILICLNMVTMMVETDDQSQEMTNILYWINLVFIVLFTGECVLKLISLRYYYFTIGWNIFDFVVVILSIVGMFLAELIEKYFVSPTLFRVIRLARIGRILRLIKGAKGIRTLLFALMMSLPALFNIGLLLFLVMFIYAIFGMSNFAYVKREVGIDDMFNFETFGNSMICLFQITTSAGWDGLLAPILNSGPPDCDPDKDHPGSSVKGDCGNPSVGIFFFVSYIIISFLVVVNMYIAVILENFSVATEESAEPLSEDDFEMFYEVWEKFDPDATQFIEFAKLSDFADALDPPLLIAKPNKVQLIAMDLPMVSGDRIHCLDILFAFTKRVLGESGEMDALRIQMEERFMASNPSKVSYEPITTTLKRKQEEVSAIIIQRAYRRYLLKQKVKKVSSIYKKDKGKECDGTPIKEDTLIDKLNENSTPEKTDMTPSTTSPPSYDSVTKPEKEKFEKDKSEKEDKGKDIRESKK
# Description: as §1, §2, §3, §4
# [3] = target: T3, human NaV1.6 channel (SCN8A, CHO cells) (Homo sapiens, UniProt Q9UQD0); experiment: as above; assay type: cell-based; conditions: change vs vehicle DMSO at IC50 concentration (CBD 16.6 μM, CBGA 12.0 μM, CBDVA 24.1 μM)
# T3 construct: expressed in transfected cells
# Description: as §1, §2, §3, §4
# [4] = target: T4, human NaV1.7 channel (SCN9A, CHO cells) (Homo sapiens, UniProt Q15858); experiment: as above; assay type: cell-based; conditions: change vs vehicle DMSO at IC50 concentration (CBD 11.9 μM, CBGA 16.4 μM, CBDVA 60 μM)
# T4 construct: expressed in transfected cells
# T4 sequence (Q15858 whole entry): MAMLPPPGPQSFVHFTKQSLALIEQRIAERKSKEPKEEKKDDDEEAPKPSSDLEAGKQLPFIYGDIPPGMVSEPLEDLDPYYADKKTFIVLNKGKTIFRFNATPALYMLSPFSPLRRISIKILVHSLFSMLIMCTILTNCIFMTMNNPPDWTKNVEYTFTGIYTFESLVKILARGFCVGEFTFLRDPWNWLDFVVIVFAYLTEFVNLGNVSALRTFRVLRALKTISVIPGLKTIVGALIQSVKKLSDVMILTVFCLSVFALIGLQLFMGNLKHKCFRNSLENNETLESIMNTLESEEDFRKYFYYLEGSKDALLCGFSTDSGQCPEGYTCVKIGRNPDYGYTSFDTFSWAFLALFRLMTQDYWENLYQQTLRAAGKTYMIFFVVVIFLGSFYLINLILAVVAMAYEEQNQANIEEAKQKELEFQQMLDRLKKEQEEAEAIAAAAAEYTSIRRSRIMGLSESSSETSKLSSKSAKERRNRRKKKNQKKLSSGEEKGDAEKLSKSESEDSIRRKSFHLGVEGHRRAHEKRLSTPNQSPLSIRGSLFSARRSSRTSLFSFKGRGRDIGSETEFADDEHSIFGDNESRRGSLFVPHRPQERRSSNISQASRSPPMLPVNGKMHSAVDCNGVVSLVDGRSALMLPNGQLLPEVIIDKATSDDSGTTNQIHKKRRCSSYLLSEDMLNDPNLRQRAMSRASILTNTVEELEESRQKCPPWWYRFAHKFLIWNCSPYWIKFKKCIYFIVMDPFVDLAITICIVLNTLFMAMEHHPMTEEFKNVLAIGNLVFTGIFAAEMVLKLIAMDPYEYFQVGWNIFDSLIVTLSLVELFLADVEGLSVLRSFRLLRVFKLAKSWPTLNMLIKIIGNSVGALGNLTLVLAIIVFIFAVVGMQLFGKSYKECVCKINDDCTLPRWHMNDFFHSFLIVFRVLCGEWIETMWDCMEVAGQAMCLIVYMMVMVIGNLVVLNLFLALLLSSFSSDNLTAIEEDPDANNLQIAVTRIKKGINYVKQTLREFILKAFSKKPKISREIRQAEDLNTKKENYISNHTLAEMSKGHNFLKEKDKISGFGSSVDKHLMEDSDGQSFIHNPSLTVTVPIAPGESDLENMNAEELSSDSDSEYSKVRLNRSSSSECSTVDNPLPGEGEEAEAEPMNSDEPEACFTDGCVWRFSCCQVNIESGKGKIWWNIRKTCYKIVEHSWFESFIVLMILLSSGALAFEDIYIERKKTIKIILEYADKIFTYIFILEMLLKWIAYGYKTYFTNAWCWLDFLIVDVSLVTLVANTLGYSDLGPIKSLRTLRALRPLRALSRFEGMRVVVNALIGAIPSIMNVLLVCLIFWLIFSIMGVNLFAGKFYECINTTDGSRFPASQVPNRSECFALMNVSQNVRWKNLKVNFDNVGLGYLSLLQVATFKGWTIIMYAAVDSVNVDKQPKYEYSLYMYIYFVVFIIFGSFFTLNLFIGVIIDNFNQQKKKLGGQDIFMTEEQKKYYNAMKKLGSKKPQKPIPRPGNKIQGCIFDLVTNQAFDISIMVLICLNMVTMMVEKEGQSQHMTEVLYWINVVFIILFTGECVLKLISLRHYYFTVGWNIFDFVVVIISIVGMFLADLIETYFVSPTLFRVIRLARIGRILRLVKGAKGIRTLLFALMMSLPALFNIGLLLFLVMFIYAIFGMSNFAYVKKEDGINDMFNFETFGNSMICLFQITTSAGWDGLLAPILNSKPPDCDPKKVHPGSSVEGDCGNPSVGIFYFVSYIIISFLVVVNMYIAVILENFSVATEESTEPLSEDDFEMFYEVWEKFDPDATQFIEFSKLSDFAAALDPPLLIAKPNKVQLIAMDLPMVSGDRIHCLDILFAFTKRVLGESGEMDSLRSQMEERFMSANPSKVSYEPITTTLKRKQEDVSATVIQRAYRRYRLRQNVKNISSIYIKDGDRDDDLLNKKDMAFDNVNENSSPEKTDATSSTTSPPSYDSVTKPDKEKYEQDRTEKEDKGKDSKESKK
# Description: as §1, §2, §3, §4
# [5] = target: T1, human NaV1.1 channel (SCN1A, HEK293T cells); set-up: method as in Milligan et al., 2022; conditions: NaV1.1 concentration-response of CBD; mean ± SEM; ref Milligan et al., 2022; cited from earlier work
# [6] = target: T2, human NaV1.2 channel (SCN2A, HEK293T cells); set-up: method as in Milligan et al., 2022; conditions: NaV1.2 concentration-response of CBD; mean ± SEM; ref Milligan et al., 2022; cited from earlier work
# [7] = target: T3, human NaV1.6 channel (SCN8A, CHO cells); set-up: method as in Milligan et al., 2022; conditions: NaV1.6 concentration-response of CBD; mean ± SEM; ref Milligan et al., 2022; cited from earlier work
# [8] = target: T4, human NaV1.7 channel (SCN9A, CHO cells); set-up: method as in Milligan et al., 2022; conditions: NaV1.7 concentration-response of CBD; mean ± SEM; ref Milligan et al., 2022; cited from earlier work
# [9] = system: mouse models of neuropathic pain; set-up: method as in Abraham et al., 2020; Casey et al., 2022; conditions: ref Abraham et al., 2020, Casey et al., 2022; cited from earlier work
# [10] = system: patients with Dravet syndrome (DS) and Lennox-Gastaut syndrome (LGS); set-up: method as in earlier work; conditions: Phase III clinical trials, ref Devinsky et al., 2017a, 2017b, 2018, 2020, 2021, Tang and Fang; cited from earlier work
compound,measurement,setting,value
"C=C(C)[C@@H]1CCC(C)=C[C@H]1c1c(O)cc(CCCCC)cc1O [CBD, cannabidiol, reference compound]",Inactivation △ V0.5 inact,[1]; SSFI,−5.6 ± 1.1**** mV
same,Inactivation △ slope factor,[1]; SSFI,0.5 ± 0.3
same,Activation △ Slope factor,[1],0.7 ± 0.2**
same,Activation △ V0.5 act,[1],0.3 ± 1.2 mV
same,Inactivation △ τinact SSFI at 5 mV,[1],0.03 ± 0.02
same,Inactivation △ V0.5 inact,[2]; SSFI,−4.2 ± 1.9 mV
same,Inactivation △ slope factor,[2]; SSFI,0.1 ± 0.2
same,Activation △ Slope factor,[2],1.0 ± 0.3*
same,Activation △ V0.5 act,[2],3.3 ± 2.7 mV
same,Inactivation △ τinact SSFI at 5 mV,[2],0.08 ± 0.07
same,Inactivation △ V0.5 inact,[3]; SSFI,−5.3 ± 3.6 mV
same,Inactivation △ slope factor,[3]; SSFI,−0.3 ± 0.7
same,Activation △ Slope factor,[3],0.2 ± 0.2
same,Activation △ V0.5 act,[3],−0.6 ± 1.1 mV
same,Inactivation △ τinact SSFI at 5 mV,[3],0.03 ± 0.06
same,Inactivation △ V0.5 inact,[4]; SSFI,−3.7 ± 1.2** mV
same,Inactivation △ slope factor,[4]; SSFI,1.2 ± 0.3***
same,Activation △ Slope factor,[4],1.9 ± 0.3****
same,Activation △ V0.5 act,[4],5.7 ± 2.3* mV
same,Inactivation △ τinact SSFI at 5 mV,[4],0.3 ± 0.1*
same,Slope (Hill slope coefficient),[5],2.1 ± 0.8
same,Slope (Hill slope coefficient),[6],1.4 ± 0.4
same,Slope (Hill slope coefficient),[7],1.3 ± 0.4
same,Slope (Hill slope coefficient),[8],3.1 ± 0.6
same,Effect on allodynia,[9],reduced allodynia
same,Effect on seizures in patients,[10],reduced seizures
